{"source": "patent US6608076B1", "about": "“Camptothecin derivatives and polymeric conjugates thereof” (priority 2002, dated 2003)", "system": "human mammary carcinoma (MX-1)", "test": "Efficacy against subcutaneous human mammary carcinoma (MX-1) xenograft in nude mice", "format": "in vivo", "from_the_text": "General Procedures. All reactions were run under an atmosphere of dry nitrogen or argon. Commercial reagents were used without further purification. All PEG compounds were 40 kDa and were dried under vacuum or by azeotropic distillation from toluene prior to use. ^13C NMR spectra were obtained at 75.46 MHz using a Varian Mercurye® 300 NMR spectrometer and deuterated chloroform as the solvent unless otherwise specified. Chemical shifts (δ) are reported in parts per million (ppm) downfield from tetramethylsilane (TMS). All PEG conjugated compounds were dissolved in saline for injection prior to in vivo drug treatments and were given as their camptothecin equivalents (absolute amount of camptothecin given). HPLC method. The reaction mixtures and the purity of intermediates and final products were monitored by a Beckman Coulter System Gold® HPLC instrument employing a ZOBAXO® 300 SB C-8 reversed phase column (150×4.6 mm) or a Phenomenex Jupiter® 300A C18 reversed phase column (150×4.6 mm) with a multiwavelength UV detector, using a gradient of 30-90% of acetonitrile in 0.5% trifluoroacetic acid (TFA) at a flow rate of 1 mL/min.\nThe efficacy of open-form camptothecin analogs against a subcutaneous human mammary carcinoma (MX-1) grown in nude mice was determined as follows. Following at least one week of acclimation, tumors were established by implanting small tumor fragments from donor mice into a single subcutaneous site, on the left axillary flank region of nude mice. The tumor implantation site was observed twice weekly and measured once palpable. The tumor volume for each mouse was determined by measuring two dimensions with calipers and calculated using the formula: tumor volume=(length×width^2). When tumors reached the average volume of approximately 75 mm^3, the mice were divided into their experimental groups, which consists of untreated controls, PEG40,000-ala-20(S)-Camptothecin, compound 8, and compound 18.\nThe mice were sorted to evenly distribute tumor size, grouped into 4 to 5 mice/cage, and ear punched for permanent identification. Drugs were dosed intravenously via the tail vein as a single dose (Qd1). Mouse weight and tumor sizes were measured at the beginning of study and twice weekly through week 5. The overall growth of tumors was calculated as the mean tumor volume at one week following the end of the treatment. A percent treatment over control (T/C) value was also calculated when the control group's median tumor size reached approximately 800-1100 mm^3 and again at one week following treatment. The T/C value in percent is a non-quantitative indication of anti-tumor effectiveness.", "data": [{"substance": "PEG40,000-ala-20(S)-Camptothecin", "values": [{"measurement": "Difference in antitumor activity between the three compounds", "setting": "at equivalent doses", "result": "no significant (P<0.05) difference in the antitumor activity"}, {"measurement": "Tumor Regression at Day 25 (#/grp)", "setting": "i.v. Qd1 (24 mg/kg/dose), Day 25", "result": "5/5"}, {"measurement": "T/C (%) At 1000 mm^3", "setting": "i.v. Qd1 (24 mg/kg/dose), median tumor volume treated vs control when control median reached approx. 1000 mm^3, T/C < 42% considered significant", "result": 1.4, "unit": "%"}, {"measurement": "Tumor volume as compared to control mice", "setting": "i.v. single dose, statistical comparison, P<0.05", "result": "significantly (P<0.05) smaller tumor volumes"}, {"measurement": "Tumor Volume (mean ± sem) Day 21", "setting": "intravenous single dose Qd1 (24 mg/kg/dose, camptothecin equivalents), established tumors ~75 mm^3, Day 21", "result": "15 ± 5", "unit": "mm^3"}]}]}
